Assay results taken from US20250098679A1, “HERBICIDAL PYRIDONE DERIVATIVES” (SYNGENTA CROP PROTECTION AG, priority 2021, published 2025).

Assays:
Assay type in all cases: in vivo
[1] = system: Setaria faberi (SETFA); test: Post-emergence Test, Setaria faberi (SETFA); set-up: key to percentage damage caused to the plant, SETFA (five-point scale): 5=81-100%, 4=61-80%, 3=41-60%, 2=21-40%, 1=0-20% damage; settings: 1000 g/ha, evaluated after 13 days
Outline: (§1)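 Sown pots in a glasshouse (24/16 °C day/night, 14 h light, 65% humidity) were sprayed with compound in acetone/water (50:50) with 0.5% Tween 20, at 1000 g/ha unless otherwise stated. Damage was assessed 13 days after spraying and scored 1–5 (5=81-100%, 1=0-20%).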

[2] = system: Ipomoea hederacea (IPOHE); test: Pre-emergence Test, Ipomoea hederacea (IPOHE); settings: evaluated after 13 days
[3] = system: Ipomoea hederacea (IPOHE); test: Post-emergence Test, Ipomoea hederacea (IPOHE); set-up: key to percentage damage caused to the plant, IPOHE (five-point scale): 5=81-100%, 4=61-80%, 3=41-60%, 2=21-40%, 1=0-20% damage; settings: evaluated after 13 days
Outline: as §1

[4] = system: Echinochloa crus-galli (ECHCG); test: Pre-emergence Test, Echinochloa crus-galli (ECHCG); settings: evaluated after 13 days
[5] = system: Amaranthus palmeri (AMAPA); test: Pre-emergence Test, Amaranthus palmeri (AMAPA); settings: evaluated after 13 days
[6] = system: Amaranthus palmeri (AMAPA); test: Post-emergence Test, Amaranthus palmeri (AMAPA); set-up: key: 5=81-100%, 4=61-80%, 3=41-60%, 2=21-40%, 1=0-20% damage; settings: evaluated after 13 days
Outline: as §1

[7] = system: Amaranthus retoflexus (AMARE); test: Post-emergence Test, Amaranthus retoflexus (AMARE); set-up: key to percentage damage caused to the plant, AMARE (five-point scale): 5=81-100%, 4=61-80%, 3=41-60%, 2=21-40%, 1=0-20% damage; settings: evaluated after 13 days
Outline: as §1

[8] = system: Zea mays (ZEAMX); test: Post-emergence Test, Zea mays (ZEAMX); set-up: key to percentage damage caused to the plant, ZEAMX (five-point scale): 5=81-100%, 4=61-80%, 3=41-60%, 2=21-40%, 1=0-20% damage; settings: evaluated after 13 days
Outline: as §1

[9] = system: Amaranthus retoflexus (AMARE); test: Pre-emergence Test, Amaranthus retoflexus (AMARE); settings: evaluated after 13 days
[10] = system: Zea mays (ZEAMX); test: Pre-emergence Test, Zea mays (ZEAMX); settings: evaluated after 13 days
[11] = system: Echinochloa crus-galli (ECHCG); test: Post-emergence Test, Echinochloa crus-galli (ECHCG); set-up: key to percentage damage caused to the plant, ECHCG (five-point scale): 5=81-100%, 4=61-80%, 3=41-60%, 2=21-40%, 1=0-20% damage; settings: evaluated after 13 days; for Post-emergence Test ECHCG, percentage damage caused to the plant (five-point scale): 250 g/Ha (*)
Outline: as §1

| Structure (SMILES) | percentage damage caused to the plant, SETFA (five-point scale) [1] | Pre-emergence Test IPOHE, percentage damage caused to the plant (five-point scale) ([2]; 250 g/Ha (*)) | Pre-emergence Test IPOHE, percentage damage caused to the plant (five-point scale) ([2]; 1000 g/ha) | percentage damage caused to the plant, IPOHE (five-point scale) ([3]; 250 g/Ha) | percentage damage caused to the plant, IPOHE (five-point scale) ([3]; 1000 g/ha) | Pre-emergence Test ECHCG, percentage damage caused to the plant (five-point scale) ([4]; 250 g/Ha (*)) | Pre-emergence Test ECHCG, percentage damage caused to the plant (five-point scale) ([4]; 1000 g/ha) | Pre-emergence Test AMAPA, percentage damage caused to the plant (five-point scale) ([5]; 250 g/Ha (*)) | Pre-emergence Test AMAPA, percentage damage caused to the plant (five-point scale) ([5]; 1000 g/ha) | percentage damage caused to the plant, AMAPA (five-point scale) ([6]; 250 g/Ha) | percentage damage caused to the plant, AMAPA (five-point scale) ([6]; 1000 g/ha) | percentage damage caused to the plant, AMARE (five-point scale) ([7]; 250 g/Ha) | percentage damage caused to the plant, AMARE (five-point scale) ([7]; 1000 g/ha) | percentage damage caused to the plant, ZEAMX (five-point scale) ([8]; 250 g/Ha) | percentage damage caused to the plant, ZEAMX (five-point scale) ([8]; 1000 g/ha) | Pre-emergence Test AMARE, percentage damage caused to the plant (five-point scale) ([9]; 250 g/Ha (*)) | Pre-emergence Test AMARE, percentage damage caused to the plant (five-point scale) ([9]; 1000 g/ha) | Pre-emergence Test ZEAMX, percentage damage caused to the plant (five-point scale) ([10]; 250 g/Ha (*)) | Pre-emergence Test ZEAMX, percentage damage caused to the plant (five-point scale) ([10]; 1000 g/ha) | percentage damage caused to the plant, ECHCG (five-point scale) ([11]; 250 g/Ha) | also measured |
| --- | --- | --- | --- | --- | --- | --- | --- | --- | --- | --- | --- | --- | --- | --- | --- | --- | --- | --- | --- | --- | --- |
| CCn1c(Cn2ccc([N+](=O)[O-])n2)cc(=O)c(C(=O)O)c1-c1ccc(Cl)c(Cl)c1 [Compound 178, 2-(3,4-dichlorophenyl)-1-ethyl-6-[(3-nitropyrazol-1-yl)methyl]-4-oxo-pyridine-3-carboxylic acid] | 2 (2=21-40%) | 0 | 0 | 1 (1=0-20%) | 0 | 1 (1=0-20%) | 2 (2=21-40%) | 0 | 0 | 1 (1=0-20%) | 1 (1=0-20%) | 0 | 1 (1=0-20%) | 0 | 0 | 0 | 0 | 0 | 0 | 1 (1=0-20%) |  |
| CCn1c(Cn2nc(C(F)F)cc2C)cc(=O)c(C(=O)O)c1-c1ccc(Cl)c(Cl)c1 [Compound 187, 2-(3,4-dichlorophenyl)-6-[[3-(difluoromethyl)-5-methyl-pyrazol-1-yl]methyl]-1-ethyl-4-oxo-pyridine-3-carboxylic acid] | 1 (1=0-20%) |  | 3 (3=41-60%) | 1 (1=0-20%) | 4 (4=61-80%) |  | 1 (1=0-20%) |  | 0 | 0 | 1 (1=0-20%) | 0 | 1 (1=0-20%) | 0 | 1 (1=0-20%) |  | 0 |  | 1 (1=0-20%) | 2 (2=21-40%) |  |
| CCn1c(Cn2nc(-c3ccccc3)cc2C(F)(F)F)cc(=O)c(C(=O)O)c1-c1ccc(Cl)c(Cl)c1 [Compound 198, 2-(3,4-dichlorophenyl)-1-ethyl-4-oxo-6-[[3-phenyl-5-(trifluoromethyl)pyrazol-1-yl]methyl]pyridine-3-carboxylic acid] |  |  | 0 |  |  |  | 1 (1=0-20%) |  | 1 (1=0-20%) |  |  |  |  |  |  |  | 1 (1=0-20%) |  | 1 (1=0-20%) |  | Post-emergence Test SETFA, percentage damage caused to the plant (five-point scale) [1]: 2 (2=21-40%); Post-emergence Test IPOHE, percentage damage caused to the plant (five-point scale) ([3]; 250 g/Ha (*)): 1 (1=0-20%); Post-emergence Test IPOHE, percentage damage caused to the plant (five-point scale) ([3]; 1000 g/ha): 2 (2=21-40%); Post-emergence Test AMAPA, percentage damage caused to the plant (five-point scale) ([6]; 250 g/Ha (*)): 1 (1=0-20%); Post-emergence Test AMAPA, percentage damage caused to the plant (five-point scale) ([6]; 1000 g/ha): 3 (3=41-60%); Post-emergence Test AMARE, percentage damage caused to the plant (five-point scale) ([7]; 250 g/Ha (*)): 1 (1=0-20%); Post-emergence Test AMARE, percentage damage caused to the plant (five-point scale) ([7]; 1000 g/ha): 4 (4=61-80%); Post-emergence Test ZEAMX, percentage damage caused to the plant (five-point scale) ([8]; 250 g/Ha (*)): 1 (1=0-20%); Post-emergence Test ZEAMX, percentage damage caused to the plant (five-point scale) ([8]; 1000 g/ha): 2 (2=21-40%); Post-emergence Test ECHCG, percentage damage caused to the plant (five-point scale) [11]: 2 (2=21-40%) |
| CCn1c(Cn2ccc(-c3nccs3)n2)cc(=O)c(C(=O)O)c1-c1ccc(Cl)c(Cl)c1 [Compound 201, 2-(3,4-dichlorophenyl)-1-ethyl-4-oxo-6-[(3-thiazol-2-ylpyrazol-1-yl)methyl]pyridine-3-carboxylic acid] |  |  | 1 (1=0-20%) |  |  |  | 0 |  | 0 |  |  |  |  |  |  |  | 0 |  | 0 |  | Post-emergence Test SETFA, percentage damage caused to the plant (five-point scale) [1]: 2 (2=21-40%); Post-emergence Test IPOHE, percentage damage caused to the plant (five-point scale) ([3]; 250 g/Ha (*)): 0; Post-emergence Test IPOHE, percentage damage caused to the plant (five-point scale) ([3]; 1000 g/ha): 2 (2=21-40%); Post-emergence Test AMAPA, percentage damage caused to the plant (five-point scale) ([6]; 250 g/Ha (*)): 0; Post-emergence Test AMAPA, percentage damage caused to the plant (five-point scale) ([6]; 1000 g/ha): 1 (1=0-20%); Post-emergence Test AMARE, percentage damage caused to the plant (five-point scale) ([7]; 250 g/Ha (*)): 0; Post-emergence Test AMARE, percentage damage caused to the plant (five-point scale) ([7]; 1000 g/ha): 2 (2=21-40%); Post-emergence Test ZEAMX, percentage damage caused to the plant (five-point scale) ([8]; 250 g/Ha (*)): 0; Post-emergence Test ZEAMX, percentage damage caused to the plant (five-point scale) ([8]; 1000 g/ha): 1 (1=0-20%); Post-emergence Test ECHCG, percentage damage caused to the plant (five-point scale) [11]: 1 (1=0-20%) |
| CCn1c(Cn2ncc(C(F)(F)F)n2)cc(=O)c(C(=O)O)c1-c1ccc(Cl)c(Cl)c1 [Compound 189, 2-(3,4-dichlorophenyl)-1-ethyl-4-oxo-6-[[4-(trifluoromethyl)triazol-2-yl]methyl]pyridine-3-carboxylic acid] |  | 3 (3=41-60%) |  | 4 (4=61-80%) |  | 5 (5=81-100%) |  | 2 (2=21-40%) |  | 5 (5=81-100%) |  | 4 (4=61-80%) |  | 4 (4=61-80%) |  | 2 (2=21-40%) |  | 4 (4=61-80%) |  | 4 (4=61-80%) |  |
| CCn1c(Cn2nc(C)cc2OC(C)(C)C)cc(=O)c(C(=O)O)c1-c1ccc(Cl)c(Cl)c1 [Compound 152, 6-[(5-tert-butoxy-3-methyl-pyrazol-1-yl)methyl]-2-(3,4-dichlorophenyl)-1-ethyl-4-oxo-pyridine-3-carboxylic acid] | 0 |  |  |  | 0 |  |  |  |  |  | 1 (1=0-20%) |  | 1 (1=0-20%) |  | 1 (1=0-20%) |  |  |  |  |  | percentage damage caused to the plant, ECHCG (five-point scale) ([11]; 1000 g/ha): 1 (1=0-20%) |
